Source: PubChem BioAssay AID179 (DTP/NCI, 2004)
Calls of active or inactive are those of the source.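 The calls were made as follows: active = compounds giving half or more protection of infected cells from virus-caused growth loss, again on retest; inactive = the rest.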 Where a SMILES comes first, the peptide text is derived from it. The star is where a group is joined. Cbz = O=C(OCc1ccccc1)*; NHNH2 = NN*

Test system: CEM cells HIV-1 protection, formazan growth assay
Test: NCI AIDS Antiviral Assay
Conditions: for IC50: measured here: growth of uninfected CEM cells
Method in brief: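 Human CEM cells, uninfected and HIV-1-infected, exposed to five drug concentrations; growth measured by soluble formazan assay and scored as percent protection from infection, with protecting compounds retested.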

## O=C(NCc1cccc(C(F)(F)F)c1)c1cc2sccc2nc1C(F)(F)F
  EC50: > 200 µM
  IC50: > 200 µM

## CCOC(OC(C)=O)[C@@H]1C=C[C@H](C)N(c2ccc([N+](=O)[O-])cc2)O1 (some centres undefined)
  EC50: > 40.7 µM
  IC50: 2.24 µM

## CCOC(=O)c1[nH]n(-c2ccccc2)c(=O)c1C=NC(C)=S
  EC50: > 200 µM
  IC50: > 100 µM

## N#CCC(=O)Nn1c(CC#N)nnc1Cc1ccccc1
  outcome: inactive

## CN(C)CN1C(=O)S/C(=C2\C(=O)N(C)c3ccc(Br)cc32)C1=O
  EC50: > 200 µM
  IC50: 24 µM

## COc1c(Br)cc(C(=O)c2cc(Br)c(OC)c(C(=O)O)c2)cc1C(=O)O
  EC50: > 1480 µM
  IC50: > 1480 µM

## C/C(=C(/C)c1cc[n+](C)cc1)c1cc[n+](C)cc1
  EC50: > 11.2 µM
  IC50: > 11.2 µM

## COc1ccc2nc3ccc(OC)cc3c(S(=O)Cc3ccc([N+](=O)[O-])cc3)c2c1 (centres undefined)
  EC50: > 200 µM
  IC50: 3.24 µM

## COC(=O)C(C)(C)N=CN(C)C
  EC50: > 1450 µM
  IC50: > 1450 µM

## CC1(C)OC2OC(C3COS(=O)O3)C(Cl)C2O1 (centres undefined)
  EC50: > 871 µM
  IC50: 490 µM

## O=C(c1ccccc1)[C@H]1Nc2ccc(Cl)cc2[C@H]2c3ccccc3O[C@H]21
  EC50: > 27.5 µM
  IC50: > 27.5 µM

## O=C(O)CCCCCSCCCCCCSCCCCCC(=O)O
  EC50: > 50.1 µM
  IC50: > 50.1 µM

## O=C1C2(CCCC13OC3c1ccccc1)OC2c1ccccc1 (centres undefined)
  EC50: > 200 µM
  IC50: 115 µM

## CC(C)CCC1(O)O[C@H]2C[C@H]3[C@@H]4CCC5CC(=O)C=C[C@]5(C)[C@H]4CC[C@]3(C)[C@H]2[C@@H]1C (some centres undefined)
  EC50: > 151 µM
  IC50: 21.4 µM

## CN1CN(c2ccccc2)C2(CCN(CCCC(=O)c3cccs3)CC2)C1=O
  EC50: > 200 µM
  IC50: 38.9 µM

## CC(C)CC(NC(=O)C(Cc1ccc(O)cc1)NC(=O)C1CCCN1C(=O)C(NC(=O)C(CO)NC(=O)C(CCCCN)NC(=O)C(NC(=O)C(N)CCC(=O)O)C(C)C)C(C)O)C(=O)NC(CO)C(=O)NC(CCCCN)C(=O)O (centres undefined) (H-EVKSTPYLSK-OH; configuration not given here)
  outcome: inactive

## COc1cc(/C=C2\C(=O)N(c3ccccc3)C(c3ccccc3)S2(=O)=O)cc(OC)c1OC (centres undefined)
  EC50: > 20 µM
  IC50: 2.88 µM

## Cc1n[nH]c(C)c1N=O
  EC50: > 200 µM
  IC50: 4.27 µM

## O=C1c2ccccc2C(=O)C1(c1ccccn1)[N+](=O)[O-]
  EC50: > 200 µM
  IC50: 72.4 µM

## CN(C)CC1CN(C(=O)Nc2ccccc2)C(=N)O1 (centres undefined)
  EC50: > 200 µM
  IC50: > 200 µM

## Cc1cn(C2CC(O[Si](C)(C)C(C)(C)C)C(/C=[N+](\C)[O-])O2)c(=O)[nH]c1=O (centres undefined)
  EC50: > 200 µM
  IC50: 37.2 µM

## CCc1ccccc1NC(=O)C(=O)C1C(=O)N(c2ccccc2)N=C1N (centres undefined)
  EC50: > 708 µM
  IC50: 224 µM

## O=C1CC2C(=O)NC(=O)C2C(=O)N1 (centres undefined)
  EC50: > 1380 µM
  IC50: > 1380 µM

## O=C(NC1(C(=O)O)CC1c1ccccc1)c1ccccc1 (centres undefined)
  EC50: > 200 µM
  IC50: > 200 µM

## OC1COCC2N3C(=NN12)Sc1ccccc13 (centres undefined)
  outcome: inactive

## CC(=O)n1c(=S)n(C(C)=O)c2ccccc21
  EC50: > 200 µM
  IC50: > 200 µM

## C/C(=N\NS(=O)(=O)c1c(C)cc(C)cc1C)c1ccc[n+]([O-])n1
  outcome: inactive

## COc1cc(-c2cc(=O)c3c(O)cc(C)cc3o2)cc(OC)c1OC
  EC50: > 200 µM
  IC50: > 200 µM

## CC(C)(C)OC(=O)NNC(=O)C1Cc2ccccc2OC1=O (centres undefined)
  EC50: > 200 µM
  IC50: > 200 µM

## Cc1cc(C)c(S(=O)(=O)N(CCCN)OCCCN)c(C)c1
  EC50: > 200 µM
  IC50: 195 µM

## CCCc1[nH]nc(CCC(=O)N(Cc2ccccc2)Cc2ccccc2)c1CC
  EC50: > 331 µM
  IC50: > 331 µM

## CCCCCCCCCC(=O)OCC1OC(n2cc(F)c(=O)[nH]c2=O)C(NC(=O)OCc2ccccc2)C(OC(=O)CCCCCCCCC)C1O (centres undefined)
  EC50: > 9.77 µM
  IC50: > 9.77 µM

## COc1ccc(Cc2c(N)[nH]c(=O)[nH]c2=O)cc1
  EC50: > 200 µM
  IC50: > 200 µM

## N#CCc1nc(C#N)c(N)o1
  EC50: 51.3 µM
  IC50: > 200 µM

## OC(CCN1CCOCC1)c1ccc(Sc2ccccc2)cc1 (centres undefined)
  EC50: > 200 µM
  IC50: 36.3 µM

## Cc1nc2cc3[nH]c4ccccc4c(=O)c3cc2s1
  EC50: > 148 µM
  IC50: > 148 µM

## O=C(O)/C(Cl)=C(\Cl)Nc1cccc(C(F)(F)F)c1
  outcome: inactive

## COC(c1cccc(C(O)(C(F)(F)F)C(F)(F)F)c1)(C(F)(F)F)C(F)(F)F
  outcome: inactive

## c1ccc(-c2cc(-c3ccncc3)cc(-c3ccncc3)n2)cc1
  EC50: > 200 µM
  IC50: > 200 µM

## Cc1ccc(S(=O)(=O)n2c3c(c4ccccc42)CCN2C[C@H]([C@H](C)Br)CC[C@@H]32)cc1
  EC50: > 200 µM
  IC50: 42.7 µM

## CC1CCC(C(C)C)C(OC2(c3ccccc3)OC(=O)c3ccccc32)C1 (centres undefined)
  outcome: inactive

## CC1(C)CC(=O)C(/C=N/c2nc(-c3ccc(Br)cc3)cs2)=C(O)C1
  EC50: > 200 µM
  IC50: 115 µM

## Cn1c(=O)c(C(c2ccccc2)c2c(O)c3ccccc3n(C)c2=O)c(O)c2ccccc21
  EC50: > 22.9 µM
  IC50: > 22.9 µM

## O=[N+]([O-])/C(Cl)=C(\NCCO)C(Cl)=C(Cl)Cl
  EC50: > 200 µM
  IC50: 63.1 µM

## CC(O)C(NCNC(=O)C1=C(O)C2(O)C(=O)C3=C(O)c4c(O)cccc4C(C)(O)C3CC2C(N(C)C)C1=O)C(=O)O (centres undefined)
  EC50: > 37.2 µM
  IC50: > 37.2 µM

## Cc1cc(C)n(-c2ccnc3cc(Cl)ccc23)n1
  EC50: > 501 µM
  IC50: 214 µM

## CN(C)CC1CCC/C(=C\c2ccc(Cl)cc2)C1=O (centres undefined)
  EC50: > 20 µM
  IC50: 0.977 µM

## CCCC(=O)Nc1ccc(O)c2c1C1CCCCCC21 (centres undefined)
  EC50: > 200 µM
  IC50: 102 µM

## ONC1=Nc2ccccc2OCc2cc(Br)c(Br)cc2COc2ccccc2N=C1NO
  EC50: > 200 µM
  IC50: 10 µM

## O=[N+]([O-])c1ccc(NC(c2ccccc2)P(=O)(Oc2ccccc2)Oc2ccccc2)cc1 (centres undefined)
  EC50: > 5.89 µM
  IC50: > 5.89 µM

## CCOP(=O)(OCC)C(=Cc1ccccc1)P(=O)(OCC)OCC
  EC50: > 661 µM
  IC50: 398 µM

## c1ccc(N=C2SC3=NCCN3C2=Nc2ccccc2)cc1
  EC50: > 200 µM
  IC50: 8.32 µM

## CC(CCc1nc2ccccc2o1)C1CCC2C3CC[C@@H]4C[C@H](O)CC[C@]4(C)C3CC[C@]12C (some centres undefined)
  EC50: > 50.1 µM
  IC50: 17.4 µM

## O=C(Cn1c2c(c3ccccc31)CCCC2)NC1CCCCC1
  EC50: > 200 µM
  IC50: > 200 µM

## COc1ccc(-c2coc3c4c(c(CC=C(C)C)c(O)c3c2=O)OC(C)(C)C=C4)cc1OC
  EC50: > 100 µM
  IC50: > 100 µM

## Cc1cccc(NC(=O)CSc2nnc(Cc3ccccc3)o2)c1
  EC50: > 537 µM
  IC50: > 537 µM

## CC(=O)Nc1ccc(S(=O)c2ccc(NC(C)=O)cc2)cc1
  EC50: > 81.3 µM
  IC50: > 81.3 µM

## CCC1(CC)COP(=S)([S][Sb]([O]C(C)=O)[S]P2(=S)OCC(CC)(CC)CO2)OC1
  EC50: > 57.5 µM
  IC50: 9.33 µM

## CC1CCC(NC(=O)N(CCCl)N=O)CC1 (centres undefined)
  EC50: > 145 µM
  IC50: > 145 µM

## Cn1cnc([N+](=O)[O-])c1Sc1nc(N)nc2c1ncn2C1OC(CO)C(O)C1O (centres undefined)
  EC50: > 200 µM
  IC50: 0.309 µM

## c1scc2c1COCCOCCOCCOCCOCCOCCOC2
  EC50: > 646 µM
  IC50: > 646 µM

## COC(=O)N/N=C(\c1nc2ccc(Cl)cc2[nH]c1=O)C(O)c1ccc([N+](=O)[O-])cc1 (centres undefined)
  EC50: > 575 µM
  IC50: 550 µM

## O=C(Cc1ccccc1)NN1C(=O)C(Cl)C1c1ccccc1 (centres undefined)
  EC50: > 31.6 µM
  IC50: > 31.6 µM

## Cc1nn(-c2ccc(S(=O)(=O)[O-])cc2)c([O-])c1N=[N+](C)c1ccc(-c2ccc(N=Nc3ccc4c(S(=O)(=O)[O-])cc(S(=O)(=O)[O-])c(N)c4c3[O-])c([O-])c2)cc1[O-].[Cu+2].[Cu+2].[Na+]
  EC50: 6.76 µM
  IC50: 120 µM

## CC(C)CC(NC(=O)C(CO)NC(=O)OCc1ccccc1)C(=O)NC(Cc1ccc(O)cc1)C(=O)NN (stereo not drawn) (Cbz-Ser-Leu-Tyr-NHNH2; configuration not given here)
  outcome: inactive

## COc1cc(O)c2c(c1)C(=O)C1=C(C2=O)C(O)C[C@@](C)(O)C1 (some centres undefined)
  outcome: inactive

## O=C(NNC(=S)Nc1ccccc1)c1ccccc1Nc1ccccc1C(=O)NNC(=S)Nc1ccccc1
  EC50: > 30.9 µM
  IC50: 30.2 µM

## CC(=O)OC1/C=C(\C)C(OC(C)=O)C/C=C(/C)CCC2C(/C=C/C1=O)C2(C)C (centres undefined)
  EC50: > 66.1 µM
  IC50: > 66.1 µM

## CC1=NN(c2nc(N)nc(-c3sccc3N)n2)C(C)(C)C1
  EC50: > 200 µM
  IC50: 77.6 µM

## COc1ccc(CN2C(=S)SC(c3ccc(Cl)cc3)N2c2ccc(OC)cc2)cc1 (centres undefined)
  EC50: > 200 µM
  IC50: > 200 µM

## CN1C=C(C(N)=O)Cc2ccsc21
  EC50: > 1290 µM
  IC50: 66.1 µM

## CCC1CCc2c(c(=O)oc3c2cc(OC)c2cccc(OC)c23)C1 (centres undefined)
  EC50: > 110 µM
  IC50: 87.1 µM

## O=C(O)CC[C@@]1(C(=O)O)NC(C(=O)O)Cc2[nH]cnc21 (some centres undefined)
  EC50: > 437 µM
  IC50: > 437 µM

## [N-]=[N+]=Nc1ccc(SSCCC(=O)ON2C(=O)CCC2=O)cc1
  EC50: > 200 µM
  IC50: 7.59 µM

## O=C(CC(C(=O)c1cccs1)c1ccsc1)c1ccco1 (centres undefined)
  EC50: > 200 µM
  IC50: 32.4 µM

## C=CCNC(=S)/N=C\C(C(=O)OCC)=C(/O)C(=O)OCC
  EC50: > 200 µM
  IC50: > 200 µM

## C=C(CCC(Cl)C(O)CO)[Si](C)(C)C (centres undefined)
  EC50: > 110 µM
  IC50: > 110 µM

## CC(=O)Nc1ccc(C(=O)N2N=C(C)/C(=C/c3ccc(O)cc3)C2=O)cc1
  EC50: > 37.2 µM
  IC50: > 37.2 µM

## Cc1cccc(C)c1NC(=O)/C(=N/NC(N)=S)C(C)C(=O)c1ccc(Cl)cc1 (centres undefined)
  EC50: > 44.7 µM
  IC50: > 44.7 µM

## C=C1c2ccccc2N(S(=O)(=O)c2ccc(C)cc2)C12CCCCC2
  EC50: > 100 µM
  IC50: 38 µM

## CCOC(=O)[C@H](O)[C@@H](O)C(=O)NCc1ccc(C(=O)c2ccccc2)cc1
  EC50: > 200 µM
  IC50: > 200 µM

## Cn1nc(-c2ccccc2)c(C(=O)/C=C/c2ccc(F)cc2)c(N2CCCCC2)c1=O
  EC50: > 18.6 µM
  IC50: > 18.6 µM

## COc1cc(OC)c2c(c1)OC(=O)C(C(C)=O)C2 (centres undefined)
  EC50: > 200 µM
  IC50: > 200 µM

## COC(=O)c1ccc(CO/N=C(\c2ccccc2)c2ccccn2)cc1
  EC50: > 162 µM
  IC50: 57.5 µM
